This note sets out measurements from paper PMC8234462, “Novel Cyclophilin Inhibitor Decreases Cell Proliferation and Tumor Growth in Models of Hepatocellular Carcinoma” (Cancers, 2021).

The test system of series [1] is iPS cardiomyocytes. The experiment in a line: Cytotoxicity, CellTiter Glo. The class given is cell-based. The conditions noted are these: Homo sapiens, Cardiomyocyte, 72 h, 3 days of treatment, read-out: IC50 (50% reduction in cell viability). On the procedure:
The evaluation of the off-target effects of NV651 was performed by ImQuest BioSciences Inc. (Frederick, MD, USA) by analyzing the cytotoxicity in a panel of primary cells. NV651 was evaluated at a concentration of 30 µM and five serial half-logarithmic dilutions in triplicate. The positive control compounds for each cell type were purchased from Sigma-Aldrich (St. Louis, MO, USA) and were as follows: Unstimulated human peripheral blood mononuclear cells (PBMCs), phytohemagglutinin (PHA)-stimulated PBMCs, monocytes/macrophages, dendritic cells, hepatocytes, induced pluripotent stem cell (iPS) neurons: […] AZT, kidney cells (RPTEC): cisplatin and iPS cardiomyocytes: Doxazosin. iPS cardiomyocytes (Cellular Dynamics, Madison, WI, USA) were seeded in a 96-well plate precoated with 0.1% gelatin (Sigma-Aldrich, St. Louis, MO, USA) in a plating medium (Cellular dynamics, Madison, WI, USA) at a concentration of 1.5 × 10^4 cells/well. After 48 h of incubation, cells were washed, and NV651 diluted in the maintenance medium (Cellular Dynamics, Madison, WI, USA) was added. After 3 days of incubation, cell viability was measured with CellTiter Glo (Promega, Madison, WI, USA). CellTiter Glo was performed to evaluate cell viability. CellTiter Glo Luminescent Cell Viability Assay (Promega, Madison, WI, USA) was performed according to the manufacturer’s instructions.
(In general: Cellular ATP, detected with luciferase, serves as a proxy for viable cell number.)

Series [2] relates to HEPG2. The series is described as follows: Cell proliferation and viability with Acridine Orange and DAPI. Type of series: cell-based, human. On the procedure:
(§1) For the quantification of the total cell number, cells were seeded at a concentration of 6000 cells/well for HEPG2 and 9000 cells/well for HUH7 in a 24-well plate. After 24 h of seeding, cells were treated with 10, 50 or 100 nM of NV651 or DMSO as the control dissolved in their correspondent media, fresh media with compound was added every 72 h. After 72 h of treatment, cells were harvested and stained with DAPI (Santa Cruz Biotechnology, Cat# SC3598, Dallas, TX, USA) and Acridine Orange (AO) (Sigma-Aldrich, Cat# A9231-10ML, St. Louis, MO, USA) at final concentrations of 5 µg/mL and 1.5 µg/mL, respectively. Quantification of the total cell number and nonviable cells was performed every day up to the tenth day. Total cell number was quantified with acridine orange staining, and the cell viability in each sample was quantified by the ratio between cells positive for DAPI staining (nonpermeable dye) and acridine orange staining.

Series [3] deals with HUH7. The series is described as above. The class given is cell-based, human. On the procedure: as §1
Series [4] has as its system HEPG2. The series is described as follows: Phospho-Histone 3 (PH3) staining. Type of series: cell-based, human. Particulars: 10 or 100 nM, 24 h. On the procedure: (§2) For the quantification of mitotic cells, HEPG2 cells were seeded in a 6-well plate at a concentration of 1.5 × 10^5 cells/well and HUH7 at 1 × 10^5 cells/well in a 6-well plate. Both cells lines were treated with 10 or 100 nM of NV651 or the equivalent volume of DMSO. Samples were fixed for HEPG2 at 24 h and for HUH7 at 48 h of treatment, as described above. Permeabilization was performed by adding 0.25% Tween20 (Sigma-Aldrich, Cat# P1379-500ML, St. Louis, MO, USA) diluted in PBS. Samples were stained with primary antibody mouse anti-PH3 (Merck Millipore, Cat# 05-806, Burlington, MA, USA) at a dilution of 1/100 overnight at 4 °C and with the secondary antibody goat anti-Mouse IgG AF488 conjugated (Life technologies, Cat# A11029, Carlsbad, CA, USA) for 1 h at room temperature. After washing, 1-µg/mL DAPI was added for the staining of the DNA content.
(§3) Data was acquired with FACSverse Instrument and analyzed with FCS Express 6 Flow Research.

Series [5] concerns HUH7. The series is described as follows: Phospho-Histone 3 (PH3) staining. The class given is cell-based, human. The conditions noted are these: 10 or 100 nM, 48 h. On the procedure:
as §2, §3

The nature of series [6]: Pharmacokinetics IV and PO. The conditions noted are these: male, CD1, mouse, blood, mice; for Tmax: read-out: time of peak concentration in blood (converted). Type of series: in vivo. On the procedure: These experiments were performed by Shanghai ChemPartner Co., Ltd. (Shanghai, China) following the guidance described above.
Thirty microliters of blood or liver samples were mixed with 100-µL Pierce Acetonitrile (ACN, Thermo Fisher Scientific, Waltham, MA, USA) containing 20-ng/mL IS (702) used as the internal standard. An aliquot of 10-µL supernatant was injected for LC-MS/MS analysis using LCMSMS-003 (API4000).
NV651 was prepared as described above. Six- to eight-week-old male mice were treated IV with 0.5 mg/kg or PO with 5 mg/kg, with 3 mice per group. Blood and plasma samples were taken pre-dose; at 5 min of treatment and at 1, 2, 4, 8 or 24 h. Analysis was performed as indicated above.

In series [7] the test system is LIXC-066. The series is described as follows: Cell proliferation assay: Acumen. The class given is cell-based. The conditions noted are these: Homo sapiens, 168 h, 7 days, read-out: Abs IC50 growth inhibition. On the procedure:
(§4) Compound screening and comparison of the antiproliferative effect of NV651 and sorafenib were performed by Shanghai ChemPartner Co., Ltd. (Shanghai, China). Cells were seeded in a 96-well plate at the following concentrations: LIXC-003 400 cells/well, LIXC-004 1000 cells/well, LIXC-086 5000 cells/well, LIXC-066 1250 cells/well, LIXC-012 2000 cells/well, LIXC-006 1250 cells/well, HEPG2 1000 cells/well, HUH7 2000 cells/well and Hep3B2.1-7-Luc 1000 cells/well. Cells were treated with either sorafenib or NV651 at 0.004, 0.011, 0.034, 0.103, 0.309, 0.926, 2.778, 8.333, 25 µM or an equivalent volume with DMSO.
(§5) After 7 days, cells were trypsinized and collected. Fifty microliters of cell suspension were added to 50 µL of 2-µM Calcein AM (Invitrogen, Cat# C3099, Waltham, MA, USA) diluted in HBSS and placed in a black-walled 96-well plate. The plate was left for 30 min at room temperature, followed by a scan with Acumen eX3.
(§6) Growth inhibition for direct cell counting (%) by Acumen was calculated as:(1) 100−100∗Experimental count−Blank/DMSO count −Blank

Series [8] relates to LIXC-004. The experiment in a line: Cell proliferation assay: Acumen. Type of series: cell-based. Particulars: Homo sapiens, 168 h, 7 days, read-out: Abs IC50 growth inhibition. On the procedure:
as §4, §5, §6

The subject of series [9] is HEPG2. The series is described as follows: Cell proliferation assay: Acumen. The class given is cell-based. Particulars: Homo sapiens, 168 h, 7 days, read-out: Abs IC50 growth inhibition. On the procedure:
as §4, §5, §6

Series [10] concerns HUH7. The experiment in a line: Cell proliferation assay: Acumen. The class given is cell-based. The conditions noted are these: Homo sapiens, Huh-7, 168 h, 7 days, read-out: Abs IC50 growth inhibition. On the procedure:
as §4, §5, §6

Where two headings read alike, the source gives them in different places.

One may read the IC50 as the midpoint of a concentration-inhibition curve. The bioavailability is dose-corrected exposure relative to a reference, in per cent. Read a high bioavailability as much systemic uptake. For `CC(=O)CCC1C(=O)NC(C(C)C)C(=O)NC(Cc2cc(O)cc(F)c2)C(=O)N2CCCC(N2)C(=O)OC(C(C)=CC=CC(=O)OC(C)(C)C)CC=CC=CC(O)C(C)C1O` (centres unmarked) [NV651], the IC50 is > 30000 nM in [1]; 169 nM in series [7]; 4 nM in series [8]; 6.3 nM in [9]; 3 nM in [10]. Besides, the “doubling time, elevated to” value is listed as 827 h in [2] (different concentrations of NV651 up to 10 days, from 43 h) and 155 h in [3] (different concentrations of NV651 up to 10 days, from 35 h). In addition, the “cell viability (DAPI+ / AO+ cells)” value is “could not observe any differences” in series [2] (up to 10 days of exposure) and “significant decrease” in series [3] (after 10 days of exposure). The “fraction of cells positive for the phosphorylation of histone 3 (PH3)” value in series [4] and in series [5] was “increased” each time. In addition, in series [6] (0.5 mg/kg IV vs 5 mg/kg PO), the bioavailability stood at 2%. For the same compound, the Tmax was ~5 min in series [6] (0.5 mg/kg IV) and ~60 min in series [6] (5 mg/kg PO).
